Source: the kinase profiling compilation of Christmann-Franck et al. (2016)
“And” between values parts separate entries of the source, which are not always exact repeats. Equal entries are not always repeated.

Columns and labels:
Experiment in all cases: KINOMEscan competition binding
Conditions in all cases: compound 10.0 µM
AKT2 (human) = AKT2 (human) (UniProt P31751)
AURKB (human) = AURKB (human) (UniProt Q96GD4)
BLK (human) = BLK (human) (UniProt P51451)
BMPR1B (human) = BMPR1B (human) (UniProt O00238)
CAMK1G (human) = CAMK1G (human) (UniProt Q96NX5)
CDC42BPA (human) = CDC42BPA (human) (UniProt Q5VT25)
CHUK (human) = CHUK (human) (UniProt O15111)
CPK1 (P.falciparum) = tested on: CPK1 (P.falciparum)
DDR2 (human) = DDR2 (human) (UniProt Q16832)
DYRK1B (human) = DYRK1B (human) (UniProt Q9Y463)
EPHA4 (human) = EPHA4 (human) (UniProt P54764)
ERN1 (human) = ERN1 (human) (UniProt O75460)
FER (human) = FER (human) (UniProt P16591)
FES (human) = FES (human) (UniProt P07332)
[1] = tested on: FLT3 (human), P36888 [D835Y]
ICK (human) = ICK (human) (UniProt Q9UPZ9)
LATS2 (human) = LATS2 (human) (UniProt Q9NRM7)
LIMK2 (human) = LIMK2 (human) (UniProt P53671)
MAP2K1 (human) = MAP2K1 (human) (UniProt Q02750)
MAP2K2 (human) = MAP2K2 (human) (UniProt P36507)
MAP2K6 (human) = MAP2K6 (human) (UniProt P52564)
MAPK1 (human) = MAPK1 (human) (UniProt P28482)
MAPK15 (human) = MAPK15 (human) (UniProt Q8TD08)
MAPK3 (human) = MAPK3 (human) (UniProt P27361)
MARK2 (human) = MARK2 (human) (UniProt Q7KZI7)
NEK6 (human) = NEK6 (human) (UniProt Q9HC98)
NEK9 (human) = NEK9 (human) (UniProt Q8TD19)
NTRK3 (human) = NTRK3 (human) (UniProt Q16288)
NUAK2 (human) = NUAK2 (human) (UniProt Q9H093)
PAK1 (human) = PAK1 (human) (UniProt Q13153)
PAK6 (human) = PAK6 (human) (UniProt Q9NQU5)
PIK3CD (human) = PIK3CD (human) (UniProt O00329)
PRKAA1 (human) = PRKAA1 (human) (UniProt Q13131)
PRKX (human) = PRKX (human) (UniProt P51817)
RPS6KA1 KD1 (human) = RPS6KA1 KD1 (human) (UniProt Q15418)
SGK3 (human) = SGK3 (human) (UniProt Q96BR1)
STK3 (human) = STK3 (human) (UniProt Q13188)
TNIK (human) = TNIK (human) (UniProt Q9UKE5)
TNK1 (human) = TNK1 (human) (UniProt Q13470)
TRPM6 (human) = TRPM6 (human) (UniProt Q9BX84)
ZAP70 (human) = ZAP70 (human) (UniProt P43403)

SGK3 (human), sequence (Q96BR1 whole entry, looked up): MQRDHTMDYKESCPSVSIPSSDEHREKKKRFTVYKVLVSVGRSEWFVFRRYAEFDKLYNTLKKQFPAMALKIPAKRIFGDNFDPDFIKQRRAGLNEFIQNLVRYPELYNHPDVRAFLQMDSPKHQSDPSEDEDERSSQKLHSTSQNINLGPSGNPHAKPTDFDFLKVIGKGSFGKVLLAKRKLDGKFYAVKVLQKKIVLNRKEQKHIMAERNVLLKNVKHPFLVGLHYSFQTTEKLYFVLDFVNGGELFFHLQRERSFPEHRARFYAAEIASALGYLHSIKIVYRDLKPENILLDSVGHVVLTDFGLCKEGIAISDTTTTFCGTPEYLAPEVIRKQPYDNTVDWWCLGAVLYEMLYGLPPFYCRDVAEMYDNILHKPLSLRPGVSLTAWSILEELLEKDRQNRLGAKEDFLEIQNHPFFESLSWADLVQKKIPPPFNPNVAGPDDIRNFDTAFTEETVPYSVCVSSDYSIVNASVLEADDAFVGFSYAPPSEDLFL
NEK6 (human), sequence (Q9HC98 whole entry, looked up): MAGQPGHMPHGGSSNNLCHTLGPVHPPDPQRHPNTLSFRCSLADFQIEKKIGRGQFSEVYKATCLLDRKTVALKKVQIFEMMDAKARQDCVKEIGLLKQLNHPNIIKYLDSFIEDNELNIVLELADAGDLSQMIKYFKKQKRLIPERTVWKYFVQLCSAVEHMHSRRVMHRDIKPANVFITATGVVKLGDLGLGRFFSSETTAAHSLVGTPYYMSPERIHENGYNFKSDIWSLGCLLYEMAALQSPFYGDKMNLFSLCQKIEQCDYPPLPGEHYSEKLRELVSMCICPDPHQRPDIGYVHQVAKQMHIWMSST
MARK2 (human), sequence (Q7KZI7 whole entry, looked up): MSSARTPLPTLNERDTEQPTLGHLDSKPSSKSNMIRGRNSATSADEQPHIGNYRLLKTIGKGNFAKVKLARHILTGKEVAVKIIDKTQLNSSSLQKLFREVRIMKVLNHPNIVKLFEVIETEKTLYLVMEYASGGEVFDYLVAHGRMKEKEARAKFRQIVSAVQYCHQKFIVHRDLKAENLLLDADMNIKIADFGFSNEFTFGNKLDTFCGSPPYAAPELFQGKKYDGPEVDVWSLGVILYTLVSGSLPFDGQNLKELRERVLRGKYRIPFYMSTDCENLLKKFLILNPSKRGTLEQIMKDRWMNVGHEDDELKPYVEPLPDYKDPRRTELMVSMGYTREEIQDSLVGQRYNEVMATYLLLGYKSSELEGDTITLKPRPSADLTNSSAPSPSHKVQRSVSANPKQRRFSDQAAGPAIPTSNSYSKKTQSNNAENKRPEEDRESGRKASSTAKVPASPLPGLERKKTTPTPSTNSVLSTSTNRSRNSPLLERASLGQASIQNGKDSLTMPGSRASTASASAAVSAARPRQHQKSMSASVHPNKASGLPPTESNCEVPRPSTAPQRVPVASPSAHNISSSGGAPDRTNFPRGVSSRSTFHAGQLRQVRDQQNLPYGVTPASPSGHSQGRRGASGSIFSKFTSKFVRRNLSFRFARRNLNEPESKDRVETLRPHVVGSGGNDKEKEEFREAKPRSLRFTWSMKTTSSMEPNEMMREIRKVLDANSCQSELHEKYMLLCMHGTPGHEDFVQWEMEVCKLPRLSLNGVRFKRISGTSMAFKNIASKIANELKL
TNK1 (human), sequence (Q13470 whole entry, looked up): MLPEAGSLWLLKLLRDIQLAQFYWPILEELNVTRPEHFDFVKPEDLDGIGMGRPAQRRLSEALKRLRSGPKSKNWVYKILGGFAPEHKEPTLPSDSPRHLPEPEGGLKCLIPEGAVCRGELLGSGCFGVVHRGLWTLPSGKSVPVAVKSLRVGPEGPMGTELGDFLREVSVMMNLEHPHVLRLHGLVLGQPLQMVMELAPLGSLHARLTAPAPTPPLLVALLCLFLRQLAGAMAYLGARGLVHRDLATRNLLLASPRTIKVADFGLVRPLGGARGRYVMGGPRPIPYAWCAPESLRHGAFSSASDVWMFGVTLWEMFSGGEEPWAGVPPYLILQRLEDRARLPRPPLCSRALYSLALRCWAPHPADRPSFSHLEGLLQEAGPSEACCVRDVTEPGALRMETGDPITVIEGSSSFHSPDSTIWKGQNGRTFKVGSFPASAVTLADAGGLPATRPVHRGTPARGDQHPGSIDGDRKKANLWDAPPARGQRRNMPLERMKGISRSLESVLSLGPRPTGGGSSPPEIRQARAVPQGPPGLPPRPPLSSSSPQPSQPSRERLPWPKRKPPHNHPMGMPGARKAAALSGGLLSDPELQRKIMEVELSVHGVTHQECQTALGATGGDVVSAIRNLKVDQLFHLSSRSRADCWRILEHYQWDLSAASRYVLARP
CHUK (human), sequence (O15111 whole entry, looked up): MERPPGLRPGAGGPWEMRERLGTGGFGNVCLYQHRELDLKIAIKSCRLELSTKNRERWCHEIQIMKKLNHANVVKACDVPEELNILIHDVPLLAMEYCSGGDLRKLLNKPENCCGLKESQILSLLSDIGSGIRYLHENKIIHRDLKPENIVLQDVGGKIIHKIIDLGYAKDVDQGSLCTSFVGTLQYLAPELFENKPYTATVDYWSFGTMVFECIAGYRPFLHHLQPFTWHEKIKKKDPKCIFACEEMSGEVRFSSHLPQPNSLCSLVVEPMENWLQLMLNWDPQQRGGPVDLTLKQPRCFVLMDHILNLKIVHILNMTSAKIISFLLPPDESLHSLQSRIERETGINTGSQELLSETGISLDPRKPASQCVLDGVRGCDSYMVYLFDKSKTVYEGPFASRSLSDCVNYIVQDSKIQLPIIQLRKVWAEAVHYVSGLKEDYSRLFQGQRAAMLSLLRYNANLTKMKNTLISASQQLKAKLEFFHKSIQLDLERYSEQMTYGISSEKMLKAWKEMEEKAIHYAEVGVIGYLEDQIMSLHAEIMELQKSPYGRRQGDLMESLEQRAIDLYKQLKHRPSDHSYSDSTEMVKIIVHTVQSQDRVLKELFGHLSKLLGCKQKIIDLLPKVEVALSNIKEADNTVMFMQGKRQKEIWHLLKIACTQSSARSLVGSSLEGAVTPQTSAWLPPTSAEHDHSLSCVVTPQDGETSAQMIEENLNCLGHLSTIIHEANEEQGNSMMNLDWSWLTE
ERN1 (human), sequence (O75460 whole entry, looked up): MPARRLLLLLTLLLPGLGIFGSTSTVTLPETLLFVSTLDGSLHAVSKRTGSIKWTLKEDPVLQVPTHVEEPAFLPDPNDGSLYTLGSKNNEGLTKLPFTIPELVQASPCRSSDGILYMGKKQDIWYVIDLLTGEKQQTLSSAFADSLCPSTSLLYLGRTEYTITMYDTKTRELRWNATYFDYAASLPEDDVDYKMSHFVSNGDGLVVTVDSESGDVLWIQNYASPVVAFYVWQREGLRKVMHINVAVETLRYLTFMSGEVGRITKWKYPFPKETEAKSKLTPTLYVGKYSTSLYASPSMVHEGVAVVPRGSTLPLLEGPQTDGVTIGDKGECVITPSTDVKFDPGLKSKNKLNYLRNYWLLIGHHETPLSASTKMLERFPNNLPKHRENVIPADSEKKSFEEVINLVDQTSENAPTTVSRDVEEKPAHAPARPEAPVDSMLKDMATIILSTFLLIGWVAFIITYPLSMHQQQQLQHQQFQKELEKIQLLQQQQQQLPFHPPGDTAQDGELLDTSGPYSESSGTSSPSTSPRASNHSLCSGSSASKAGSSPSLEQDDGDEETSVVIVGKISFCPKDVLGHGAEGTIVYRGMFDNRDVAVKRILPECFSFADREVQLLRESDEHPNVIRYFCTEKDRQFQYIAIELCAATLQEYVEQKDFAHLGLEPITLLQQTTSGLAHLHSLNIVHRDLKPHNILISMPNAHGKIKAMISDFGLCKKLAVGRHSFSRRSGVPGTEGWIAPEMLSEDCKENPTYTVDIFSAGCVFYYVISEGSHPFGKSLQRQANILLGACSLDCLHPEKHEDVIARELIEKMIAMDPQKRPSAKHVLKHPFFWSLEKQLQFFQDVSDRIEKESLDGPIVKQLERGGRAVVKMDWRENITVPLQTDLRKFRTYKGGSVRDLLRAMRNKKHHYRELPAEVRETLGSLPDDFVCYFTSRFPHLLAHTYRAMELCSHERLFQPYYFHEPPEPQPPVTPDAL
NUAK2 (human), sequence (Q9H093 whole entry, looked up): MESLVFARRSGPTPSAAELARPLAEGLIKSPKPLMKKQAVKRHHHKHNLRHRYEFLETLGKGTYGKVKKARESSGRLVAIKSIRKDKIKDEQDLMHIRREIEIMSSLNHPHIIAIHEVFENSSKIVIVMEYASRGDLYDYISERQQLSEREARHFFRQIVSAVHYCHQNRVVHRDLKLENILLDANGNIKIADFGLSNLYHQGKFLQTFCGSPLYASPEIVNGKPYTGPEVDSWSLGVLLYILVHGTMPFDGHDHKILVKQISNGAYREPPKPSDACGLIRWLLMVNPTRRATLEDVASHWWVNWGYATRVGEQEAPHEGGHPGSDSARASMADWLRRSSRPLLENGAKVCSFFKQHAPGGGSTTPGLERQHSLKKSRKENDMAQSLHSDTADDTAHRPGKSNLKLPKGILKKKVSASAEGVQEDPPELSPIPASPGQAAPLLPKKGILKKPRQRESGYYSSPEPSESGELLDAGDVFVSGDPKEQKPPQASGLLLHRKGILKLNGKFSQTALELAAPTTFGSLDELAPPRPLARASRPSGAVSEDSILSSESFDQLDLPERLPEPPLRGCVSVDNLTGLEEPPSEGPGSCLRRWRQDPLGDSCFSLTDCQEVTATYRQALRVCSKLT
PRKX (human), sequence (P51817 whole entry, looked up): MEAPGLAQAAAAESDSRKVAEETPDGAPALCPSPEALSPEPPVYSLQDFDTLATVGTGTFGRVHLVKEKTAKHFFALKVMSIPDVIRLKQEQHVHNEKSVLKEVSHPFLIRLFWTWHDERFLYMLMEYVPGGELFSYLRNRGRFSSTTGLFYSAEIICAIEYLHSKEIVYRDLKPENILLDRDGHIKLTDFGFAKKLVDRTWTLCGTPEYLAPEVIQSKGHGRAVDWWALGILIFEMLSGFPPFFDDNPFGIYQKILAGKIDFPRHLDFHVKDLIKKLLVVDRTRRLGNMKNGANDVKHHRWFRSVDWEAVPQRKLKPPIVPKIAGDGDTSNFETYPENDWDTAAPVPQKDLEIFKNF

What does the source list for O=c1[nH]c2ccccc2n1C1CCN(Cc2ccc(-c3nc4cc5[nH]cnc5cc4nc3-c3ccccc3)cc2)CC1?
kinase still bound, per cent of control (AKT2 (human)): 100%; kinase still bound, per cent of control (AURKB (human)): 91%; kinase still bound, per cent of control (BLK (human)): 76%; kinase still bound, per cent of control (BMPR1B (human)): 88%; kinase still bound, per cent of control (CAMK1G (human)): 90%; kinase still bound, per cent of control (CDC42BPA (human)): 85%; kinase still bound, per cent of control (CHUK (human)): 75%; kinase still bound, per cent of control (CPK1 (P.falciparum)): 40%; kinase still bound, per cent of control (DDR2 (human)): 76%; kinase still bound, per cent of control (DYRK1B (human)): 88%; kinase still bound, per cent of control (EPHA4 (human)): 100%; kinase still bound, per cent of control (ERN1 (human)): 66%; kinase still bound, per cent of control (FER (human)): 83%; kinase still bound, per cent of control (FES (human)): 100%; kinase still bound, per cent of control [1]: 51%; kinase still bound, per cent of control (ICK (human)): 91%; kinase still bound, per cent of control (LATS2 (human)): 82%; kinase still bound, per cent of control (LIMK2 (human)): 100%; kinase still bound, per cent of control (MAP2K1 (human)): 83%; kinase still bound, per cent of control (MAP2K2 (human)): 75%; kinase still bound, per cent of control (MAP2K6 (human)): 100%; kinase still bound, per cent of control (MAPK1 (human)): 100%; kinase still bound, per cent of control (MAPK15 (human)): 100%; kinase still bound, per cent of control (MAPK3 (human)): 100%; kinase still bound, per cent of control (MARK2 (human)): 83%; kinase still bound, per cent of control (NEK6 (human)): 100%; kinase still bound, per cent of control (NEK9 (human)): 88%; kinase still bound, per cent of control (NTRK3 (human)): 98%; kinase still bound, per cent of control (NUAK2 (human)): 67%; kinase still bound, per cent of control (PAK1 (human)): 90%; kinase still bound, per cent of control (PAK6 (human)): 85%; kinase still bound, per cent of control (PIK3CD (human)): 51%; kinase still bound, per cent of control (PRKAA1 (human)): 72%; kinase still bound, per cent of control (PRKX (human)): 100%; kinase still bound, per cent of control (RPS6KA1 KD1 (human)): 91%; kinase still bound, per cent of control (SGK3 (human)): 75% and 100%; kinase still bound, per cent of control (STK3 (human)): 100%; kinase still bound, per cent of control (TNIK (human)): 97%; kinase still bound, per cent of control (TNK1 (human)): 91%; kinase still bound, per cent of control (TRPM6 (human)): 87%; kinase still bound, per cent of control (ZAP70 (human)): 99%

With COc1cc2ncnc(Nc3cccc(Cl)c3)c2cc1OC as the compound, how does the kinase still bound, per cent of control (AKT2 (human)) read?
Its kinase still bound, per cent of control is 100%.

What about the kinase still bound, per cent of control (AURKB (human)) of the same compound?
The kinase still bound, per cent of control was 40%.

What about the kinase still bound, per cent of control (BLK (human)) of the same compound?
The kinase still bound, per cent of control was 7.1%.

What about the kinase still bound, per cent of control (BMPR1B (human)) of the same compound?
The kinase still bound, per cent of control was 62%.

What about the kinase still bound, per cent of control (CAMK1G (human)) of the same compound?
The kinase still bound, per cent of control was 64%.

And the kinase still bound, per cent of control (CDC42BPA (human))?
Its kinase still bound, per cent of control is 77%.

What about the kinase still bound, per cent of control (CHUK (human)) of the same compound?
Its kinase still bound, per cent of control is 72%.

And the kinase still bound, per cent of control (CPK1 (P.falciparum))?
The kinase still bound, per cent of control was 34%.

What about the kinase still bound, per cent of control (DDR2 (human)) of the same compound?
The kinase still bound, per cent of control was 42%.

What about the kinase still bound, per cent of control (DYRK1B (human)) of the same compound?
Its kinase still bound, per cent of control is 70%.

And the kinase still bound, per cent of control (EPHA4 (human))?
The kinase still bound, per cent of control was 72%.

What about the kinase still bound, per cent of control (ERN1 (human)) of the same compound?
The kinase still bound, per cent of control was 41%.

What about the kinase still bound, per cent of control (FER (human)) of the same compound?
Its kinase still bound, per cent of control is 82%.

What about the kinase still bound, per cent of control (FES (human)) of the same compound?
The kinase still bound, per cent of control was 96%.

And the kinase still bound, per cent of control [1]?
Its kinase still bound, per cent of control is 11%.

What about the kinase still bound, per cent of control (ICK (human)) of the same compound?
The kinase still bound, per cent of control was 100%.

What about the kinase still bound, per cent of control (LATS2 (human)) of the same compound?
The kinase still bound, per cent of control was 40%.

What about the kinase still bound, per cent of control (LIMK2 (human)) of the same compound?
The kinase still bound, per cent of control was 100%.

And the kinase still bound, per cent of control (MAP2K1 (human))?
Its kinase still bound, per cent of control is 25%.

What about the kinase still bound, per cent of control (MAP2K2 (human)) of the same compound?
The kinase still bound, per cent of control was 25%.

And the kinase still bound, per cent of control (MAP2K6 (human))?
The kinase still bound, per cent of control was 95%.

And the kinase still bound, per cent of control (MAPK1 (human))?
Its kinase still bound, per cent of control is 100%.

And the kinase still bound, per cent of control (MAPK15 (human))?
The kinase still bound, per cent of control was 100%.

And the kinase still bound, per cent of control (MAPK3 (human))?
The kinase still bound, per cent of control was 88%.

What about the kinase still bound, per cent of control (MARK2 (human)) of the same compound?
Its kinase still bound, per cent of control is 74%.

And the kinase still bound, per cent of control (NEK6 (human))?
Its kinase still bound, per cent of control is 100%.

And the kinase still bound, per cent of control (NEK9 (human))?
The kinase still bound, per cent of control was 78%.

What about the kinase still bound, per cent of control (NTRK3 (human)) of the same compound?
The kinase still bound, per cent of control was 87%.

What about the kinase still bound, per cent of control (NUAK2 (human)) of the same compound?
The kinase still bound, per cent of control was 49%.

And the kinase still bound, per cent of control (PAK1 (human))?
The kinase still bound, per cent of control was 85%.

And the kinase still bound, per cent of control (PAK6 (human))?
The kinase still bound, per cent of control was 94%.

And the kinase still bound, per cent of control (PIK3CD (human))?
Its kinase still bound, per cent of control is 71%.

And the kinase still bound, per cent of control (PRKAA1 (human))?
Its kinase still bound, per cent of control is 100%.

And the kinase still bound, per cent of control (PRKX (human))?
Its kinase still bound, per cent of control is 100%.

What about the kinase still bound, per cent of control (RPS6KA1 KD1 (human)) of the same compound?
The kinase still bound, per cent of control was 93%.

And the kinase still bound, per cent of control (SGK3 (human))?
The kinase still bound, per cent of control was 65% and 84%.

What about the kinase still bound, per cent of control (STK3 (human)) of the same compound?
Its kinase still bound, per cent of control is 91%.

What about the kinase still bound, per cent of control (TNIK (human)) of the same compound?
Its kinase still bound, per cent of control is 26%.

And the kinase still bound, per cent of control (TNK1 (human))?
The kinase still bound, per cent of control was 26%.

What about the kinase still bound, per cent of control (TRPM6 (human)) of the same compound?
The kinase still bound, per cent of control was 77%.

And the kinase still bound, per cent of control (ZAP70 (human))?
Its kinase still bound, per cent of control is 78%.
